# Data from patent US20090117200A1, “Fungicide Composition Comprising a Phosphorous Acid Derivative, a Mandelamide Type Compound and a Further Fungicide Compound” (priority 2005, published 2009).
# Assays:
# Plasmopara viticola [1] = assay: Example 4: preventive 72 h application on vine downy mildew, phosphorous acid / mandipropamid / mefenoxam, TAMMES analysis; format: in vivo
# Experimental: (§1) Vine plants (variety Cabernet Sauvignon) were grown in a sandy soil in plastic pots with a single plant per pot.
# (§2) Four days before treatment, phosphorous acid was applied at 1,500 g a.i./ha on plants planned to be treated later with phosphorous acid based product alone or in mixture.
# (§3) A three days interval separated treatment and inoculation. Three days after the treatment, each plant was inoculated by spraying an aqueous suspension of sporangia of Plasmopara viticola obtained from infected leaves and sensitive to all the tested compounds. The concentration of sporangia was about 100,000 units per ml.
# (§4) After contamination the plants were incubated for 7 days at 22° C. in a saturated atmosphere. Seven days after contamination, symptoms were evaluated in terms of the extent of the lower surface of the leaves infected, in comparison with untreated (UTC) but contamined plants.
# (§5) The efficacy of the treatment was calculated using the Abbott formula:
# (§6) efficacy=(untreated−treated/untreated)×100
# (§7) The concentrations of the fungicide active substances alone or in mixture giving % efficacy for each component were determined based on the sigmoid curve dose/response model with their confidence intervals. The analysis of the results was made according to the TAMMES model (Isoboles, a graphic representation of synergism in pesticides, Neth. J. Plant Path. 70 (1964): 73-80).
# Plasmopara viticola [2] = assay: Example 3: preventive 72 h application on vine downy mildew, phosphorous acid / mandipropamid / folpet, TAMMES analysis; format: in vivo
# Experimental: as §1
# The following ratio was tested: phosphorous acid (A)/mandipropamid (B)/folpet (C) respectively: 1,500 g a.i./ha+75 g a.i./ha+750 g a.i./ha (ratio 20/1/10).
# The dose range tested for phosphorous acid equivalent (329 g/kg) was: 3,000 g a.i./ha, 1,500 g a.i./ha, 1,000 g a.i./ha, 750 g a.i./ha, 500 g a.i./ha, 250 g a.i./ha, 80 g a.i./ha, 40 g a.i./ha, 20 g a.i./ha, 10 g a.i./ha, 2 g a.i./ha and 0.2 g a.i./ha.
# The dose range for mandipropamid+folpet was: 75+750 g a.i./ha, 4+40 g a.i./ha, 2+20 g a.i./ha, 1+10 g a.i./ha, 0.5+5 g a.i./ha, 0.1+1 g a.i./ha and 0.01+0.1 g a.i./ha.
# For the ternary mixture phosphorous acid equivalent+mandipropamid+folpet, the dose range studied was: 1,500+75+750 g a.i./ha, 80+4+40 g a.i./ha, 40+2+20 g a.i./ha, 20+1+10 g a.i./ha, 10+0.5+5 g a.i./ha, 2+0.1+1 g a.i./ha and 0.2+0.01+0.1 g a.i./ha.
# as §2, §3, §4, §5, §6, §7
# [3] = sum of the components, or dose of the single compound, vine, preventive 72 h
compound,measurement,setting,value
OP(O)O [phosphorous acid],ED70,Plasmopara viticola [1]; Table 2 of Example 4: practical 70% of disease control observed,650 g a.i./ha
same,ED90,Plasmopara viticola [1]; Table 2 of Example 4: practical 90% of disease control observed,"1,500 g a.i./ha"
same,ED70,"Plasmopara viticola [2]; Table 2 of Example 3: calculated according to efficacy observed, 70% of disease control",6.2 g a.i./ha
same,ED90,"Plasmopara viticola [2]; Table 2 of Example 3: calculated according to efficacy observed, 90% of disease control",145 g a.i./ha
same,"Practical dose for 70% efficacy, total",Plasmopara viticola [2]; [3],6.2 g a.i./ha
same,"Practical dose for 90% efficacy, total",Plasmopara viticola [2]; [3],145 g a.i./ha
